Laboratory results from PubChem BioAssay AID2060493 (Molecular Pharmacology Branch, DTP, NCI, 2025).

System: 616215-338-R-J1-PDC tumor spheroids, viability
Test: Anticancer human tumor 616215-338-R-J1-PDC patient-derived colon adenocarcinoma cell line growth inhibition [GQUAD]
Settings: spheroids with HUVEC and MSC; for IC50: curve of first compound; for viability, T/C: stronger effect = lower value; active = viability on the fitted dose curve at most 10% of control; inactive = the rest
Outline: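 Multi-cell-type spheroids of tumor cells with HUVEC and mesenchymal stem cells, treated with drug combinations. Concentrations descend in half-log steps from near clinical Cmax, or from 10 microM where Cmax is unknown; viability read-out.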

[1] = second compound 0.0316 µM, first compound 0.0316 µM
[2] = second compound 0.0316 µM, first compound 0.316 µM
[3] = second compound 0.1 µM, first compound 0.0316 µM
[4] = second compound 0.1 µM, first compound 0.316 µM
[5] = second compound 0.316 µM, first compound 0.0316 µM
[6] = second compound 0.316 µM, first compound 0.316 µM
[7] = second compound 1 µM, first compound 0.0316 µM
[8] = second compound 1 µM, first compound 0.316 µM
[9] = second compound 3.16 µM, first compound 0.0316 µM
[10] = second compound 3.16 µM, first compound 0.316 µM
[11] = second compound 10 µM, first compound 0.0316 µM
[12] = second compound 10 µM, first compound 0.316 µM
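Note: spheroids exposed to agents for 7 days before readout.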
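Throughout, for viability, T/C: percent viability relative to DMSO vehicle control wells taken as 100%.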

Cc1[nH]c2ccccc2c1CCNCc1ccc(/C=C/C(=O)NO)cc1 + Cc1[nH]c2ccc(F)cc2c1-c1nc2c3cccnc3c3ncccc3c2[nH]1
0.125 µM: IC50 (second compound 10 µM)
0.162 µM: IC50 (second compound 0.316 µM)
0.132 µM: IC50 (second compound 3.16 µM)
0.131 µM: IC50 (second compound 1 µM)
active: viability, T/C [6] 9.21% | viability, T/C [12] 8.56%
0.178 µM: IC50 (second compound 0.1 µM)
0.145 µM: IC50 (second compound 0.0316 µM)
inactive: viability, T/C (second compound 0.0316 µM, first compound 0.000999 µM) 110% | viability, T/C (second compound 0.0316 µM, first compound 0.00316 µM) 98.6% | viability, T/C (second compound 0.0316 µM, first compound 0.00999 µM) 95.8% | viability, T/C [1] 108% | viability, T/C (second compound 0.0316 µM, first compound 0.0999 µM) 67.6% | viability, T/C [2] 13.2% | viability, T/C (second compound 0.1 µM, first compound 0.000999 µM) 93.6% | viability, T/C (second compound 0.1 µM, first compound 0.00316 µM) 96.6% | viability, T/C (second compound 0.1 µM, first compound 0.00999 µM) 94.4% | viability, T/C [3] 97% | viability, T/C (second compound 0.1 µM, first compound 0.0999 µM) 89.6% | viability, T/C [4] 10.9% | viability, T/C (second compound 0.316 µM, first compound 0.000999 µM) 99.5% | viability, T/C (second compound 0.316 µM, first compound 0.00316 µM) 109% | viability, T/C (second compound 0.316 µM, first compound 0.00999 µM) 104% | viability, T/C [5] 97.9% | viability, T/C (second compound 0.316 µM, first compound 0.0999 µM) 79.8% | viability, T/C (second compound 1 µM, first compound 0.000999 µM) 102% | viability, T/C (second compound 1 µM, first compound 0.00316 µM) 98.5% | viability, T/C (second compound 1 µM, first compound 0.00999 µM) 93.1% | viability, T/C [7] 101% | viability, T/C (second compound 1 µM, first compound 0.0999 µM) 62% | viability, T/C [8] 10.9% | viability, T/C (second compound 3.16 µM, first compound 0.000999 µM) 98% | viability, T/C (second compound 3.16 µM, first compound 0.00316 µM) 92.6% | viability, T/C (second compound 3.16 µM, first compound 0.00999 µM) 100% | viability, T/C [9] 94% | viability, T/C (second compound 3.16 µM, first compound 0.0999 µM) 62.7% | viability, T/C [10] 10.8% | viability, T/C (second compound 10 µM, first compound 0.000999 µM) 99.7% | viability, T/C (second compound 10 µM, first compound 0.00316 µM) 99.5% | viability, T/C (second compound 10 µM, first compound 0.00999 µM) 103% | viability, T/C [11] 95.1% | viability, T/C (second compound 10 µM, first compound 0.0999 µM) 59.9%

O=C(NO)c1cnc(N2CCN(S(=O)(=O)c3ccc4ccccc4c3)CC2)nc1 + CN(C)c1ccc(Nc2c3ccc(NC(=O)CCN4CCCC4)cc3nc3cc(NC(=O)CCN4CCCC4)ccc23)cc1
0.324 µM: IC50 (second compound 0.0316 µM)
0.22 µM: IC50 (second compound 10 µM)
0.312 µM: IC50 (second compound 1 µM)
0.255 µM: IC50 (second compound 0.316 µM)
active: viability, T/C (second compound 0.0316 µM, first compound 1 µM) 1.08% | viability, T/C (second compound 0.0316 µM, first compound 3.16 µM) 0.1% | viability, T/C (second compound 0.0316 µM, first compound 10 µM) 0.1% | viability, T/C (second compound 0.1 µM, first compound 1 µM) 0.65% | viability, T/C (second compound 0.1 µM, first compound 3.16 µM) 0.04% | viability, T/C (second compound 0.1 µM, first compound 10 µM) 0.07% | viability, T/C (second compound 0.316 µM, first compound 1 µM) 0.54% | viability, T/C (second compound 0.316 µM, first compound 3.16 µM) 0.02% | viability, T/C (second compound 0.316 µM, first compound 10 µM) 0.06% | viability, T/C (second compound 1 µM, first compound 1 µM) 0.3% | viability, T/C (second compound 1 µM, first compound 3.16 µM) 0.03% | viability, T/C (second compound 1 µM, first compound 10 µM) 0.07% | viability, T/C (second compound 3.16 µM, first compound 1 µM) 0.25% | viability, T/C (second compound 3.16 µM, first compound 3.16 µM) 0.07% | viability, T/C (second compound 3.16 µM, first compound 10 µM) 0.1% | viability, T/C (second compound 10 µM, first compound 1 µM) 0.24% | viability, T/C (second compound 10 µM, first compound 3.16 µM) 0.16% | viability, T/C (second compound 10 µM, first compound 10 µM) 0.17%
0.293 µM: IC50 (second compound 3.16 µM)
0.322 µM: IC50 (second compound 0.1 µM)
inactive: viability, T/C [1] 104% | viability, T/C (second compound 0.0316 µM, first compound 0.1 µM) 97.5% | viability, T/C [2] 51.4% | viability, T/C [3] 105% | viability, T/C (second compound 0.1 µM, first compound 0.1 µM) 107% | viability, T/C [4] 50.8% | viability, T/C [5] 99.6% | viability, T/C (second compound 0.316 µM, first compound 0.1 µM) 103% | viability, T/C [6] 38.2% | viability, T/C [7] 96.5% | viability, T/C (second compound 1 µM, first compound 0.1 µM) 98.1% | viability, T/C [8] 49.5% | viability, T/C [9] 89.9% | viability, T/C (second compound 3.16 µM, first compound 0.1 µM) 93.7% | viability, T/C [10] 47% | viability, T/C [11] 101% | viability, T/C (second compound 10 µM, first compound 0.1 µM) 80.5% | viability, T/C [12] 37.7%
